What was measured:
[1] = Metal chelation capacity (ferrozine); conditions: test compounds 1 mM ethanolic solution, FeCl2, ferrozine
Protocol: An ORAC (Oxygen Radical Absorbance Capacity) assay was carried out using a Fluostar Optima plate reader (BMG Labtech, Durham, N.C.) equipped with an incubator and two injector pumps. A modified method for lipophilic antioxidants was followed, in which randomly methylated cyclodextrin (RMCD) was used as water solubility enhancer, as described by Huang et al, J. Agric. Food Chem., 2002, 50, 1815-1821. Trolox standards (6.25-50 μM) and samples (0.25 μM) were dissolved in acetone/water (1:1, v/v) containing 7% RMCD. Fluorescein and […] [2,2′-azobis(2-aminopropane)dihydrochloride] were used as the probe and radical generator, respectively. Twenty microliters of trolox standard or test compound solutions (7% RMCD used as a control) were added into each well of a 96-well black microplate, followed by addition of fluorescein. The plate was incubated at 37° C. for 15 min and then AAPH in buffer was injected into the wells. The conditions used were as follows: 0.3 s position delay, 8 s orbital shaking before each cycle with 4 mm width, 210 s cycle time, and 25 cycles. Fluorescence was measured at an excitation wavelength of 485 nm and emission of 520 nm. A standard curve was plotted and ORAC values for test compounds were obtained as mol of trolox equivalents (TE) per mol of test compound. (3b) Reducing Power The reducing power of EGCG and its derivatives (compounds 1a-1c) was determined according to Oyaizu (1986). One milliliter of test compounds (1 mM in 95% ethanol) was mixed with 2.5 ml of phosphate buffer solution (PBS, 0.2 M, pH 6.6) and 2.5 ml of a 1% solution of potassium ferricyanide, K3Fe(CN)6. The mixture was incubated at 50° C. for 20 min. […] The content was mixed well and the absorbance was recorded at 700 nm. Higher absorbance of the reaction mixture indicates greater reducing power. […] (3c) Metal Chelation The metal chelation capacity was measured following a procedure by Decker E. A. et al., J. Agric. […] The absorbance was measured afterwards at 562 nm. A blank without ferrozine was run for each compound, since the antioxidant-Fe^2+ complex gives a colour that might interfere with the absorbance reading. Metal chelation capacity was calculated using the following equation: % chelation=[1−(Abs.sample−Abs.blank)/Abs.control]×100 where, control was devoid of test compounds, while blank contained no ferrozine. (3d) DPPH Antioxidant activity of the lipophilic EGCG derivatives was ALSO evaluated as DPPH (1,1-diphenyl-2-picrylhydrazyl) radical scavenging capacity using EGCG as the reference. DPPH scavenging capacity of test compounds was determined by EPR (electron paramagnetic resonance) according to Madhujith and Shahidi (16) with slight modifications. […] The spectrum was recorded after 1 min. […]

[2] = Incorporation into liposomes; assay type: physicochemical; conditions: 500 μM in ethanol added to MLV, 20 min, 37° C.
Protocol: Phosphotidylcholine (PC) (25 mg) was dissolved in a small amount of chloroform in a round bottom flask, followed by evaporation of the solvent with a rotary evaporator to obtain a thin layer film on the inner surface of the flask. Trace solvent was removed by nitrogen flush. An aqueous glucose solution (300 mM, 5 ml) was added to the flask, and the content was thoroughly vortexed and sonicated in an ultrosonicator, followed by a repeated freeze-thaw processing (4 times). The liposomal solution was diluted with 45 ml of phosphate buffer saline (PBS, 50 mM, pH7.4) and transferred into a centrifuge tube. The content was centrifuged at 13000 g for 5 min to remove the untrapped glucose. The sediment was re-suspended in 25 ml of PBS to obtain a final liposomal MLV. An aliquot (0.9 ml) of the above MLV was transferred to an Eppendorf tube containing 0.1 ml of test compounds (500 μM in ethanol) or ethanol blank. The content was mixed by vortexing and incubated for 20 min at 37° C. After incubation the mixture was centrifuged at 13000 g for 5 min, and the sediment was washed with 1 ml of 10% ethanol (in PBS), followed by a second centrifugation. The supernatants were combined and absorbance measured at 280 nm. A series of standard solutions in 10% ethanol at different concentrations was prepared for each test compound and their absorbance measured at 280 nm to construct a standard curve (absorbance VS. concentration). The un-incorporated test compounds in the supernatant were quantified using their corresponding standard curve. Percentage incorporation of each compound into the liposomes was calculated according to the following equation: % incorporation=100×(1−amount un-incorporated/amount added)=100×(1−C×2/50) where, C is the concentration of test compounds read from the standard curve. Discussion

[3] = Inhibition against UV-induced liposome oxidation; conditions: UV 254 nm, 45 min
Protocol: To prepare liposome MLV, 10 mg of egg yolk PC were dissolved in a small amount of chloroform in a round bottom flask and the solvent was removed using a rotary evaporator followed by nitrogen flush. The thin film on the inner surface of the flask was suspended in 10 ml of PBS (10 mM, pH7.4, 150 mM NaCl) by vortex and sonication, and the emulsion was then repeatedly frozen and thawed for 4 times. The liposomal MLV obtained were diluted by 90 ml of PBS, and an aliquot (750 μL) was transferred into an Eppendorf tube containing 10 μL of test compounds dissolved in ethanol and 240 μL of PBS. The content was mixed well and incubated at 37° C. for 15 min. After incubation, the mixture was exposed to UV irradiation (254 nm) for 45 min. The oxidation was detected by measuring conjugated dienes (CD) spectrophotometically at 234 nm against a blank without liposome (test compounds+PBS). Conjugated diene values were calculated as follows using blank-corrected absorbances. CD(mol/g of PC)=Abs./εLC, where ε is the absorptivity constant (29500 M^−1cm^−1), L is the length of the cuvette (1 cm) and C is the final concentration of PC (g/L). […] Discussion

| Compound | Metal chelation [1] [%] | % incorporation into liposomes [2] [%] | % inhibition of UV-induced liposome oxidation (conjugated dienes) [3] [%] |
| --- | --- | --- | --- |
| CCCCCCCCCCCCCCCCCC(=O)Oc1cc(C(=O)OC2Cc3c(O)cc(O)cc3OC2c2cc(OC(=O)CCCCCCCCCCCCCCCCC)c(O)c(OC(=O)CCCCCCCCCCCCCCCCC)c2)cc(OC(=O)CCCCCCCCCCCCCCCCC)c1O (stereo not drawn) [Compound 1a, EGCG stearate] | 8.33 | 91.19 | 47.59 |
| CCC=CCC=CCC=CCC=CCC=CCCCC(=O)Oc1cc(C(=O)OC2Cc3c(O)cc(O)cc3OC2c2cc(OC(=O)CCCC=CCC=CCC=CCC=CCC=CCC)c(O)c(OC(=O)CCCC=CCC=CCC=CCC=CCC=CCC)c2)cc(OC(=O)CCCC=CCC=CCC=CCC=CCC=CCC)c1O (stereo not drawn) [Compound 1b] | 35.42 | 71.81 | 3.47 |
| CCC=CCC=CCC=CCC=CCC=CCC=CCCC(=O)Oc1cc(C(=O)OC2Cc3c(O)cc(O)cc3OC2c2cc(OC(=O)CCC=CCC=CCC=CCC=CCC=CCC=CCC)c(O)c(OC(=O)CCC=CCC=CCC=CCC=CCC=CCC=CCC)c2)cc(OC(=O)CCC=CCC=CCC=CCC=CCC=CCC=CCC)c1O (stereo not drawn) [Compound 1c] | 28.13 | 80.91 | 16.22 |
| O=C(O[C@@H]1Cc2c(O)cc(O)cc2O[C@@H]1c1cc(O)c(O)c(O)c1)c1cc(O)c(O)c(O)c1 [EGCG, Epigallocatechin gallate, reference compound] | 10.42 | 65.17 | 9.53 |

— patent publication US9018248B2, “Fatty acid derivatives of catechins and methods of their use” (Genesis Group Inc., priority 2010, dated 2015)
